This is an account of results in patent US20110053907A1, “SUBSTITUTED PYRIMIDINES AND TRIAZINES AND THEIR USE IN CANCER THERAPY” (Auckland UniServices Limited, priority 2008, published 2011).

Structures are written as SMILES. Where a name gives a salt, the structure may show the parent alone.

Data set [1] concerns the target p110α/p85 (Homo sapiens, UniProt P42336). The data set can be described thus: Reversible inhibition of isolated enzyme, lipid kinase assay. Format: biochemical. The conditions noted are these: recombinant enzyme, 100 μM ATP, 1 hr, average of two experiments. As for the experimental part: Compounds were evaluated for their ability to inhibit Class I PI 3-kinase enzymes p110δ/p85, p110α/p85, and p110β/p85. Reaction mixtures comprising 0.1 μg of a recombinant enzyme, 10 μg of L-α-phosphatidylinositol, and 2× Lipid Kinase Buffer (40 mM Tris-HCl, pH 7.4, 200 mM NaCl, 1 mM EDTA), which contains either DMSO only as a control or the test compound in DMSO (the final DMSO concentration is 1%), were activated by the addition of an ATP mix (5 mM MgCl2, 100 μM ATP, and 0.1 μL [γ^33P]ATP). Reactions were incubated at room temperature for 1 hr, and then stopped by the addition of 1M HCl. The lipids were then extracted using a two step procedure. Firstly, 200 μL of chloroform/methanol (1:1) was added, the biphasic reactions mixed and centrifuged briefly, and the inorganic phase was removed and discarded. Following this, 80 μL of methanol:HCl (1:1) was added and the same procedure followed. The organic phase (70 μL) was then transferred to a clean 1.6 mL tube and the reactions were dried using a Speedvac, with no heating, for 30 min. The reactions were spotted onto TLC plates (Merck Ltd) and developed for 1 hr in propanol-1:2 M acetic acid (13:7). The TLC plates were then dried at room temperature and quantified using a phosphorimager (StormImager, Amersham). Nine compound concentrations were used for each test compound to determine its IC50 value. Each experiment was performed twice and the average IC50 value is used herein.

p110α/p85, sequence (P42336 whole entry): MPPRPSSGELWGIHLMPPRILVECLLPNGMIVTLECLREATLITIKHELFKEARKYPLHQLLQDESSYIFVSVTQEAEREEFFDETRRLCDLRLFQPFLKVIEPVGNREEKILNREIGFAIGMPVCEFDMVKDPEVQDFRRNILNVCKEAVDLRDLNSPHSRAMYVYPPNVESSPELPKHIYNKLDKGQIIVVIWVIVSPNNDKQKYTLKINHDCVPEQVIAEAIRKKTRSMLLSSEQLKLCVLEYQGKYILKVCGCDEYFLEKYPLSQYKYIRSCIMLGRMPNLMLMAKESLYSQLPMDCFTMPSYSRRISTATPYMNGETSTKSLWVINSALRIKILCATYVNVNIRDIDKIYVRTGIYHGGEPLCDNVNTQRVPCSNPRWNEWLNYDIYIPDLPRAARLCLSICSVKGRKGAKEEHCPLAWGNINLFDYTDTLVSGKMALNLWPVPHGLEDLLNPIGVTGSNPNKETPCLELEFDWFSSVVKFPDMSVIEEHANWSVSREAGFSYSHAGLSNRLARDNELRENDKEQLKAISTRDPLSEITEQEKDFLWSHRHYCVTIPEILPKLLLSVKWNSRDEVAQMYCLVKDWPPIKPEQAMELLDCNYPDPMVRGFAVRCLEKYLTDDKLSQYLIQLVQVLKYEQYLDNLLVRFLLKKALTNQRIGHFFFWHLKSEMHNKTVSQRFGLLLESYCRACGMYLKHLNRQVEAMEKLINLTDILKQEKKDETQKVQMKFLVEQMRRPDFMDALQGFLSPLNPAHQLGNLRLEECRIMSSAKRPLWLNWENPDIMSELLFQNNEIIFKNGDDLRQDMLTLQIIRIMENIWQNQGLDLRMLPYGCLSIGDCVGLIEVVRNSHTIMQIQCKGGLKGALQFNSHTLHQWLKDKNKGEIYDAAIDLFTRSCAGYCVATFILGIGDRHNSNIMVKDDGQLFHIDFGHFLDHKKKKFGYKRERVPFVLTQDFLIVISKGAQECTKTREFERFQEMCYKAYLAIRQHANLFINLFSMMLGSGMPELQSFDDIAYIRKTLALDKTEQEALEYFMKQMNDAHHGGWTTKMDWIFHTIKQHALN
p110α/p85, sequence (P27986 whole entry partner): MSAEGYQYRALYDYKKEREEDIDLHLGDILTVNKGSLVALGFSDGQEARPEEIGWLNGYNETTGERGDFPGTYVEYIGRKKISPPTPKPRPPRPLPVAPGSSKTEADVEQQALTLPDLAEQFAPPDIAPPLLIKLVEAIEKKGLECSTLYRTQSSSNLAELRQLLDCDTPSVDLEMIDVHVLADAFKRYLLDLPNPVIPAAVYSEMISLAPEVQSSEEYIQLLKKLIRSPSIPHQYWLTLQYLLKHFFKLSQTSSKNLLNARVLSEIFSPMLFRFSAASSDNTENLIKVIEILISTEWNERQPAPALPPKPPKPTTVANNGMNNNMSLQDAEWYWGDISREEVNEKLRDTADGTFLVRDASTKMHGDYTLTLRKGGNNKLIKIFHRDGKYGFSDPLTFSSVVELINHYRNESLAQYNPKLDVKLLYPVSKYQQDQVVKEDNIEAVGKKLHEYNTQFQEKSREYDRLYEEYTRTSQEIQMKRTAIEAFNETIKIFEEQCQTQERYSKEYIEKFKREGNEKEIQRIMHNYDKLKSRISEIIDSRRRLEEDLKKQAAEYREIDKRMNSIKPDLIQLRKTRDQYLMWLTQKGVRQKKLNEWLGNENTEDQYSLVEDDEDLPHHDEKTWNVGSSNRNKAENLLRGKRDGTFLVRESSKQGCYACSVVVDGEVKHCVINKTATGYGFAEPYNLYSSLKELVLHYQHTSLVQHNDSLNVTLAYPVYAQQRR

The melting point is the temperature, or range, at which the solid turns liquid. In turn, `COc1cccc2c1nc(C(F)F)n2-c1nc(-c2ccncc2)nc(N2CCN(C(=O)CCl)CC2)n1` (as salt: hydrochloride) [Example 6, 1-[4-[4-(chloroacetyl)-1-piperazinyl]-6-(4-pyridinyl)-1,3,5-triazin-2-yl]-2-(difluoromethyl)-4-methoxy-1H-benzimidazole] yielded a melting point above 300 °C.

As for `CN(C)CCCOc1cccc2c1nc(C(F)F)n2-c1nc(N2CCOCC2)nc(N2CCN(S(=O)(=O)CCl)CC2)n1` (as salt: hydrochloride) [Example 13], the melting point was in the range of 243 to 247 °C. Same read-out and setting: next, `CN(C)CCCOc1cccc2c1nc(C(F)F)n2-c1nc(N2CCOCC2)nc(N(C)C2CCN(C(=O)CCl)CC2)n1` (as salt: hydrochloride) [Example 20, N-[1-(chloroacetyl)-4-piperidinyl]-4-{2-(difluoromethyl)-4-[3-(dimethylamino)propoxy]-1H-benzimidazol-1-yl}-N-methyl-6-(4-morpholinyl)-1,3,5-triazin-2-amine]: 128 °C (dec.); `O=C(CCl)N1CCN(c2nc(-c3cccc(O)c3)nc(N3CCOCC3)n2)CC1` [Example 1, 3-[4-[4-(chloroacetyl)-1-piperazinyl]-6-(4-morpholinyl)-1,3,5-triazin-2-yl]phenol]: 242 to 245 °C. Same read-out and setting: the figure for `CCOc1cccc2c1nc(C(F)F)n2-c1nc(N2CCOCC2)nc(N2CCN(C(=O)CCl)CC2)n1` [Example 2, 1-[4-[4-(chloroacetyl)-1-piperazinyl]-6-(4-morpholinyl)-1,3,5-triazin-2-yl]-2-(difluoromethyl)-4-ethoxy-1H-benzimidazole] is 217 to 219 °C; for `O=C(CCl)N1CCN(c2nc(N3CCOCC3)nc(-n3c(C(F)F)nc4ccccc43)n2)CC1` [Example 3, 1-[4-[4-(Chloroacetyl)-1-piperazinyl]-6-(4-morpholinyl)-1,3,5-triazin-2-yl]-2-(difluoromethyl)-1H-benzimidazole] it is 189 to 191 °C; for `O=C(CCl)N1CCN(c2nc(N3CCOCC3)nc(-n3c(C(F)F)nc4c(O)cccc43)n2)CC1` [Example 5, 1-[4-[4-(Chloroacetyl)-1-piperazinyl]-6-(4-morpholinyl)-1,3,5-triazin-2-yl]-2-(difluoromethyl)-1H-benzimidazol-4-ol] it is 267 to 270 °C. In the case of `COc1cccc2c1nc(C(F)F)n2-c1nc(N2CCOCC2)nc(N2CCN(C(=O)C(Cl)Cl)CC2)n1` [Example 7, 1-[4-[4-(dichloroacetyl)-1-piperazinyl]-6-(4-morpholinyl)-1,3,5-triazin-2-yl]-2-(difluoromethyl)-4-methoxy-1H-benzimidazole], the melting point lay within 275 to 278 °C. The IC50 is the concentration that inhibits the measured activity by half. Consider `COc1cccc2c1nc(C(F)F)n2-c1nc(N2CCOCC2)nc(N2CCN(C(=O)C(Cl)(Cl)Cl)CC2)n1` [Example 8, 2-(difluoromethyl)-1-{4-(4-morpholinyl)-6-[4-(trichloroacetyl)-1-piperazinyl]-1,3,5-triazin-2-yl}-1H-benzimidazol-4-yl methyl ether], for which, in data set [1], the IC50 is below 0.1 µM.

Take `COc1cccc2c1nc(C(F)F)n2-c1nc(N2CCOCC2)nc(N2CCN(C(=O)COS(C)(=O)=O)CC2)n1` [Example 9, 2-{4-[4-[2-(difluoromethyl)-4-methoxy-1H-benzimidazol-1-yl]-6-(4-morpholinyl)-1,3,5-triazin-2-yl]-1-piperazinyl}-2-oxoethyl methanesulfonate]: the melting point fell in the range of 176 to 180 °C. For the same compound, in data set [1], the half-maximal inhibitory concentration (IC50) was below 0.1 µM. With `COc1cccc2c1nc(C(F)F)n2-c1nc(N2CCOCC2)nc(N2CCN(C(=O)C(C)Cl)CC2)n1` (stereo not drawn) [Example 10, 1-[4-[4-(2-chloropropanoyl)-1-piperazinyl]-6-(4-morpholinyl)-1,3,5-triazin-2-yl]-2-(difluoromethyl)-4-methoxy-1H-benzimidazole], the half-maximal inhibitory concentration (IC50) in data set [1] is below 0.1 µM. `COc1cccc2c1nc(C(F)F)n2-c1nc(N2CCOCC2)nc(N2CCN(S(=O)(=O)CCl)CC2)n1` [Example 11, 1-[4-{4-[(chloromethyl)sulfonyl]-1-piperazinyl}-6-(4-morpholinyl)-1,3,5-triazin-2-yl]-2-(difluoromethyl)-4-methoxy-1H-benzimidazole] yielded a melting point of 261 to 263 °C. The half-maximal inhibitory concentration (IC50) in data set [1] is below 0.1 µM.

The compound `COc1cccc2c1nc(C(F)F)n2-c1nc(N2CCOCC2)nc(N2CCN(S(=O)(=O)CBr)CC2)n1` [Example 12, 1-[4-{4-[(bromomethyl)sulfonyl]-1-piperazinyl}-6-(4-morpholinyl)-1,3,5-triazin-2-yl]-2-(difluoromethyl)-4-methoxy-1H-benzimidazole] returned a melting point of 259 to 262 °C. The 50% inhibitory concentration (IC50) in data set [1] was below 0.1 µM. With `CN(C)CCCOc1cccc2c1nc(C(F)F)n2-c1nc(N2CCOCC2)nc(N2CCN(S(=O)(=O)CCl)CC2)n1` [Example 13], in data set [1], the IC50 was above 1 µM. As to `COc1cccc2c1nc(C(F)F)n2-c1nc(N2CCOCC2)cc(N2CCN(S(=O)(=O)CCl)CC2)n1` [Example 14, 1-[4-{4-[(chloromethyl)sulfonyl]-1-piperazinyl}-6-(4-morpholinyl)-2-pyrimidinyl]-2-(difluoromethyl)-4-methoxy-1H-benzimidazole], the melting point was 229 to 232 °C. In addition, the IC50 in data set [1] was below 0.1 µM. Turning to `COc1cccc2c1nc(C(F)F)n2-c1cc(N2CCN(S(=O)(=O)CCl)CC2)nc(N2CCOCC2)n1` [Example 15, 1-[6-{4-[(chloromethyl)sulfonyl]-1-piperazinyl}-2-(4-morpholinyl)-4-pyrimidinyl]-2-(difluoromethyl)-4-methoxy-1H-benzimidazole], the melting point was in the range of 220 to 222 °C. The IC50 in data set [1] was in the range of 0.1 to 1 µM. In the case of `COc1cccc2c1nc(C(F)F)n2-c1cc(N2CCOCC2)nc(N2CCN(S(=O)(=O)CCl)CC2)n1` [Example 16, 1-[2-{4-[(chloromethyl)sulfonyl]-1-piperazinyl}-6-(4-morpholinyl)-4-pyrimidinyl]-2-(difluoromethyl)-4-methoxy-1H-benzimidazole], the melting point is 215 to 218 °C. In data set [1], the IC50 was below 0.1 µM. On the same counts, the results for `COc1cccc2c1nc(C(F)F)n2-c1nc(C2CCN(C(=O)CCl)CC2)nc(N2CCOCC2)n1` [Example 17, 1-[4-[1-(chloroacetyl)-4-piperidinyl]-6-(4-morpholinyl)-1,3,5-triazin-2-yl]-2-(difluoromethyl)-4-methoxy-1H-benzimidazole] are 241 to 243 °C and below 0.1 µM. In turn, `COc1cccc2c1nc(C(F)F)n2-c1nc(NC2CCN(C(=O)CCl)CC2)nc(N2CCOCC2)n1` [Example 18, N-[1-(chloroacetyl)-4-piperidinyl]-4-[2-(difluoromethyl)-4-methoxy-1H-benzimidazol-1-yl]-6-(4-morpholinyl)-1,3,5-triazin-2-amine] registered a melting point of 270 to 273 °C. Also, the IC50 in data set [1] was below 0.1 µM. Consider `CN(C)CCCOc1cccc2c1nc(C(F)F)n2-c1nc(N2CCOCC2)nc(N(C)C2CCN(C(=O)CCl)CC2)n1` [Example 20, N-[1-(chloroacetyl)-4-piperidinyl]-4-{2-(difluoromethyl)-4-[3-(dimethylamino)propoxy]-1H-benzimidazol-1-yl}-N-methyl-6-(4-morpholinyl)-1,3,5-triazin-2-amine], for which the IC50 in data set [1] was in the range of 0.1 to 1 µM. In the case of `CN(C)CCCOc1cccc2c1nc(C(F)F)n2-c1nc(N2CCOCC2)nc(N2CCC(N(C)C(=O)CCl)CC2)n1` [Example 24, 2-chloro-N-{1-[4-{2-(difluoromethyl)-4-[3-(dimethylamino)propoxy]-1H-benzimidazol-1-yl}-6-(4-morpholinyl)-1,3,5-triazin-2-yl]-4-piperidinyl}-N-methylacetamide], the IC50 in data set [1] is 0.1 to 1 µM. Still for that read-out and setting: the figure for `COc1cccc2c1nc(C(F)F)n2-c1nc(N2CCOCC2)nc(N2CC[C@H](NC(=O)CCl)C2)n1` [Example 26, 2-chloro-N-{(3S)-1-[4-[2-(difluoromethyl)-4-methoxy-1H-benzimidazol-1-yl]-6-(4-morpholinyl)-1,3,5-triazin-2-yl]pyrrolidinyl}acetamide] is below 0.1 µM; for `COc1cccc2c1nc(C(F)F)n2-c1nc(N2CCOCC2)nc(N2CCC[C@H](N(C)C(=O)CCl)C2)n1` [Example 36, 2-chloro-N-{(3S)-1-[4-[2-(difluoromethyl)-4-methoxy-1H-benzimidazol-1-yl]-6-(4-morpholinyl)-1,3,5-triazin-2-yl]piperidinyl}-N-methylacetamide] it is below 0.1 µM. In the case of `COc1cccc2c1nc(C(F)F)n2-c1nc(N[C@H]2CCCN(C(=O)CCl)C2)nc(N2CCOCC2)n1` [Example 38], the IC50 in data set [1] is below 0.1 µM. Regarding `CN(C)CCCOc1cccc2c1nc(C(F)F)n2-c1nc(OC2CCN(C(=O)CCl)CC2)nc(N2CCOCC2)n1` [Example 46, 3-{[1-[4-{[1-(chloroacetyl)-4-piperidinyl]oxy}-6-(4-morpholinyl)-1,3,5-triazin-2-yl]-2-(difluoromethyl)-1H-benzimidazol-4-yl]oxy}-N,N-dimethyl-1-propanamine], in data set [1], the half-inhibitory concentration (IC50) was in the range of 0.1 to 1 µM.
